Data taken from PubChem BioAssay (NCI).
In brackets after ≈: the same amount, converted by molar mass.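 All cell lines were grown in 96-well plates and treated with compound for 48 hours. At the GI50, growth is halved.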

Assays:
Experiment in all cases: NCI anticancer screen, dose series, 48 h; in the data active = GI50 below about 0.43 µM; inactive = the rest
RPMI-8226 leukemia = tested on: RPMI-8226 leukemia
NCI-H23 lung = tested on: NCI-H23 lung
LOX IMVI melanoma = tested on: LOX IMVI melanoma
CCRF-CEM leukemia = tested on: CCRF-CEM leukemia
UO-31 renal = tested on: UO-31 renal
BT-549 breast = tested on: BT-549 breast
HOP-92 NSCLC = tested on: HOP-92 NSCLC

Measured: GI50

COc1cc(C=C2C(=O)NC(=O)NC2=O)ccc1OCc1ccccc1
inactive: RPMI-8226 leukemia 22.3 µg/mL (≈ 63.2 µM) | NCI-H23 lung 69.9 µg/mL (≈ 198 µM) | LOX IMVI melanoma 87.8 µg/mL (≈ 249 µM) | CCRF-CEM leukemia 79.7 µg/mL (≈ 226 µM) | UO-31 renal 61.2 µg/mL (≈ 174 µM) | BT-549 breast 33.9 µg/mL (≈ 96.1 µM) | HOP-92 NSCLC 71.8 µg/mL (≈ 204 µM)
